Test results as given in article PMC8026324, “In Vitro Antiplasmodial, Heme Polymerization, and Cytotoxicity of Hydroxyxanthone Derivatives” (Journal of Tropical Medicine, 2021).
≈ marks a conversion by molar mass, not a printed value.

Legend:
[1] = test system: Plasmodium falciparum FCR-3 (chloroquine-resistant strain); assay: In vitro antiplasmodial activity assay, microscopic method, strain FCR-3; type: cell-based
How it was run: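 Sorbitol-synchronized ring-stage parasites at 1% parasitemia, 2% haematocrit in RPMI with 10% human O serum, exposed to compound dilutions in triplicate for 72 h at 37 °C. Parasitemia counted on Giemsa smears (≥1,000 erythrocytes); IC50 from growth inhibition by probit analysis.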

[2] = test system: formation of β-hematin (heme polymerization); assay: In vitro heme polymerization inhibitory activity (HPIA) assay; type: biochemical
Protocol: The heme polymerization inhibitory activity (HPIA) was conducted according to Basilico et al.'s modified method. The 100 μL of 1 mM hematin in 0.2 M NaOH was added into a microtube. […] Distilled water was used as a negative control. The 50 μL solution of glacial acetic acid (pH 2.6) was added into the microtube to initiate the polymerization reaction and incubated at a temperature of 37°C for 24 hours. Microtubes were centrifuged at 8000 rpm for 10 minutes and the supernatant was discarded and then washed three times using the 200 μL dimethyl sulfoxide (DMSO).Then, the deposition of the hematin crystal was dissolved with 200 μL of 0.1 M NaOH and 100 μL of solution was added into the 96-well microplate.
Absorbance was read using ELISA reader at λ 405 nm. A standard curve was made to illustrate the relationship between the concentration of hematin and its absorbance. The various concentrations of hematin (250; 125; 62.5; 31.25; 15.6; 7.8; and […]) were used to make the standard curve. The heme polymerization inhibition was expressed as IC50, which is the concentration of testing compounds that can inhibit 50% of the formation of β-hematin. The IC50 value was calculated by probit analysis using SPSS software (IBM Corp., Chicago).

[3] = test system: MCF-7; set-up: method as in earlier work; details: cited from earlier work
[4] = test system: WIDR; set-up: method as in earlier work; details: cited from earlier work

- IC50 ([1]; Plasmodium falciparum, FCR3, 72 hours incubation, microscopic method, read-out: IC50 on P. falciparum FCR-3): 6.76 ± 2.38 µM
- IC50 ([2]; 24 hours, 37°C, glacial acetic acid pH 2.6): 2.85 mM
Compound: O=c1c2c(O)cccc2oc2cc(O)cc(O)c12 [HX1, 1,6,8-trihydroxyxanthone]
- inhibition at 6.39 µM ([1]; Plasmodium falciparum, FCR3, 6.39 μM, read-out: Growth inhibition of P. falciparum Strain FCR-3): 50.9 ± 2.31%
- inhibition at 12.8 µM ([1]; Plasmodium falciparum, FCR3, 12.8 μM, read-out: Growth inhibition of P. falciparum Strain FCR-3): 55.2 ± 3.59%
- inhibition at 25.59 µM ([1]; Plasmodium falciparum, FCR3, 25.59 μM, read-out: Growth inhibition of P. falciparum Strain FCR-3): 60.2 ± 2.74%
- inhibition at 51.19 µM ([1]; Plasmodium falciparum, FCR3, 51.19 μM, read-out: Growth inhibition of P. falciparum Strain FCR-3): 64.4 ± 0.671%
- inhibition at 102.38 µM ([1]; Plasmodium falciparum, FCR3, 102.38 μM, read-out: Growth inhibition of P. falciparum Strain FCR-3): 73.7 ± 4.28%
- antiplasmodial activity category on P. falciparum FCR-3 ([1]; category by IC50): good (good (IC50 1–20 μM))
- Inhibition of β-hematin ([2]; compound 1.269 mM): 33.901%
- β-Hematin formed ([2]; compound 1.269 mM): 72.500 mM
- Inhibition of β-hematin ([2]; compound 2.580 mM): 49.149%
- β-Hematin formed ([2]; compound 2.580 mM): 55.776 mM
- Inhibition of β-hematin ([2]; compound 5.119 mM): 50.359%
- β-Hematin formed ([2]; compound 5.119 mM): 54.448 mM
- Inhibition of β-hematin ([2]; compound 10.238 mM): 86.893%
- β-Hematin formed ([2]; compound 10.238 mM): 14.376 mM
- Inhibition of β-hematin ([2]; compound 20.475 mM): 91.171%
- β-Hematin formed ([2]; compound 20.475 mM): 9.684 mM
- cytotoxicity on MCF-7 (in words) [3]: weak
- IC50 on MCF-7 cell line ([3]; in vitro cytotoxicity): 45 µg/mL (≈ 184 µM)
- cytotoxicity on WIDR (in words) [4]: weak
- IC50 on WIDR cell line ([4]; in vitro cytotoxicity): 61.9 µg/mL (≈ 253 µM)
